Drawing on patent US20250011738A1, “HEAT TOLERANT ALKALINE PHOSPHATASE” (BiomEdit, LLC, priority 2021, published 2025), this text covers Km for one compound.

The target in this assay is T1, Paenibacillus lentus alkaline phosphatase AP1 heat tolerant mutant APHT (designated "HT"), 16 amino acid changes from AP1, SEQ ID NO: 1 (Paenibacillus lentus, UniProt A0A3Q8S6G4, A163G/A247P/A302M/D102S/D304A/F110I/G290A/K198N/K66I/L136H/S105A/S168N/S338G/S535E/T223N/V100I/Y117N).
T1 sequence (A0A3Q8S6G4 34-572 K66I/V100I/D102S/S105A/F110I/Y117N/L136H/A163G/S168N/K198N/T223N/A247P/G290A/A302M/D304A/S338G/S535E): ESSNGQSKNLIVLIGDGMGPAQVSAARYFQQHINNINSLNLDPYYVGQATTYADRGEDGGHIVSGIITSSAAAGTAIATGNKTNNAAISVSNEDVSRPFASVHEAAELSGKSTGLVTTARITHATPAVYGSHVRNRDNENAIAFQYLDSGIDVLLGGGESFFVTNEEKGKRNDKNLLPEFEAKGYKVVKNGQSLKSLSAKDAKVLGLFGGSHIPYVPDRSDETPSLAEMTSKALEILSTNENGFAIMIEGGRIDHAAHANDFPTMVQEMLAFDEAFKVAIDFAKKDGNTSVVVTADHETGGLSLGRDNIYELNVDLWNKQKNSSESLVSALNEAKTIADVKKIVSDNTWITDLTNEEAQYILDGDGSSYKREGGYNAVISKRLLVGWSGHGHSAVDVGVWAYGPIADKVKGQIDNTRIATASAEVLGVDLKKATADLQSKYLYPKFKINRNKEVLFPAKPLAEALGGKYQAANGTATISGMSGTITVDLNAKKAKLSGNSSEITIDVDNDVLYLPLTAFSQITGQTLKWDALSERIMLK
The assay is classed as biochemical. The procedure: FIG. 7 presents effect of pH on (A)Vmax (IU/mg) and (B) KM (μM) activity of AP1 (designated “Native”) and APHT (designated “HT”). Assays were performed at 40° C. with p-NPP as substrate in the concentration range 0-5 mM. The enzyme concentration was 2.5 μg/mL for the pH 8 and 0.4 mg/mL for pH 9-13).
FIG. 8 presents effect of pH on (A)Vmax (IU/mg) and (B) KM (μM) activity of AP1 (designated “Native”) and APHT (designated “HT”). Assays were performed at 50° C. with p-NPP as substrate in the concentration range 0-5 mM. The enzyme concentration was 2.5 μg/mL for the pH 8 and 0.4 mg/mL for pH 9-13).
To further improve the thermal stability, a set of synthetic alkaline phosphatase genes where each amino acid was mutated to other possibilities one at a time was constructed and evaluated. […] In FIG. 5A, the AP1 with a serine mutation is designated as “AP Native” and is depicted in sequence with a leader sequence […] (SEQ ID NO:13). The AP1 with leader sequence […] is provided in SEQ ID NO:14). The APHT polypeptide with leader sequence […] is provided in SEQ ID NO:15). In FIG. 5B, the AP1 with a serine mutation and without any leader sequence or leader peptide amino acids (SEQ ID NO:4) is aligned and compared with the APHT without any leader sequence or leader peptide amino acids (SEQ ID NO:1). The 16 amino acid changes in APHT are evident. The APHT amino acid sequence (excluding and without any leader sequence and starting with amino acids ESSN) is 97% identical to the sequence of AP1 (excluding and without any leader sequence and starting with amino acids ESSN).
The APHT sequence (SEQ ID NO: 1) is provided below with the amino acid mutations versus the AP1 sequence underlined and in bold.
• 1 M DEA Buffer pH 10. Dissolve 10.5 g of diethanolamine in to 100 ml of water. The pH adjust with 1 M hydrochloric acid or 1 M NaOH. Filter sterilize and store at 4 C. • 0.5 M Tris Base Buffer pH 10 and 8. Dissolve 6.06 g of Tris in to 100 ml of water. The pH adjust with 1 M hydrochloric acid or 1 M NaOH. Filter sterilize and store at 4 C. • 0.1 M Borate Buffer pH 11 and 12. Dissolve 0.62 g Boric acid, 0.44 g NaCl and Sodium tetraborate 0.95 g in 100 ml H2O. The pH adjust with 1 M hydrochloric acid or 1 M NaOH. Filter sterilize and store at 4 C. • 1 M KCl/NaOH Buffer pH 13. Dissolve 7.4 g KCl in 100 ml water. The pH adjust with 1 M NaOH. Filter sterilize and store at 4 C. • 1 M MgCl2, 23.8 g MgCl2 anhydrous in […] water. Filter sterilize and store at 4 C 3. Activity Assay: p-NPP Substrate
Reactions were carried out at 40° C. using 50 mM Tris buffer pH 7 with 50 mM MgCl2 and at 50° C. using 50 mM DEA buffer pH 10 with 50 mM MgCl2. Enzyme was thawed, aliquoted in 500 μL vials and freeze at −80° C. For 100 μL volume of reaction, components were mixed in 96-well microplate (Fisher 12565501) following the order in TABLE 1. Every reaction condition was done by triplicated at least.
After the adding enzyme, the absorption of product was followed at 405 nm over 5 min in a M5 plate reader with intervals of 20 s. Initial rate was determined for each curve and product formed calculated using the extinction coefficient of 18.5 mM^−1·cm^−1 and a calculated pathlength of 0.5 cm. Initial rates where fitted to Michalis Menten model built in the Kaleidagraph software.
pH effect on enzyme activity was tested at 40 and 50° C. in the corresponding buffer with 50 mM MgCl2 using p-NPP as substrate in the concentration range 0-5.0 mM. The reaction started with the addition of enzyme (2.5 μg/mL for pH 8 and 0.4 μg/mL for pH 9-13) and the absorption at 405 nm was followed for 5 min. Every reaction condition was done by triplicated at least.

Like-named read-outs stand apart in the source and are kept apart here.

In the case of `O=[N+]([O-])c1ccc(OP(=O)(O)O)cc1` [p-NPP, p-nitrophenylphosphate], the Km came to 12200 µM (40° C., Borate pH 11); 498 µM (40° C., Borate pH 12); 2540 µM (40° C., DEA pH 10); 46 µM (40° C., Tris pH 8); 992 µM (40° C., Tris pH 9); 12200 µM (50° C., Borate pH 11). Also, the Km reads like this: (50° C., Borate pH 12) 1080 µM; (50° C., DEA pH 10) 2540 µM; (50° C., KCl/NaOH (pH printed 204; Table 2: 13.0)) 498 µM; (50° C., Tris pH 8) 45 µM; (50° C., Tris pH 9) 992 µM.
